Test results published in PubChem BioAssay AID2060326 (Molecular Pharmacology Branch, DTP, NCI, 2025).
Several values for one entry are separate records, joined by “and”; a condition that tells them apart may be missing. Equal values may be shown once.

Test system: MDA-MB-468 multi-cell spheroids, viability
Test: Anticancer human tumor MDA-MB-468 cell line growth inhibition [IpAb];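 further: spheroids exposed to agents for seven days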;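 on viability, T/C: 100% = DMSO vehicle control viability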
Conditions: for viability, T/C: stronger effect = lower value
Text: Combinatorial screen of targeted agents with ipatasertib and abemaciclib in multi-cell type tumor spheroids
A high-throughput screen of multi-cell type tumor spheroids was designed to identify active combinations of targeted small molecules and ipatasertib or abemaciclib. Complex spheroids include a stromal component modeled by human endothelial cells (HUVEC) and fibroblasts modeled by human mesenchymal stem cells (MSCs). The concentration ranges selected for each drug and investigational agent were based upon clinically achievable concentrations if the clinical Cmax of the agent was known.
Compounds. The drugs and investigational agents: ipatasertib (NSC767898), abemaciclib(NSC768073), selumetinib (NSC741078), trametinib (758246), adavosertib (NSC754352), everolimus (NSC733504), sapanisertib (NSC764658), vemurafenib (NSC761431), venetoclax (NSC766270), copanlisib (NSC809693), apelisib (NSC765974), palbociblib (NSC758247), vemurafenib (NSC761431), dabrafenib (NSC764134), ravoxertinib (NSC781343), BMS-387032 (NSC767048), sotorasib (NSC818433), talazoparib (NSC767125) and afursertib (NSC778305), were obtained from the National Cancer Institute (NCI) Developmental Therapeutics Program Chemical Repository. The FDA-approved anticancer drug set is available from the NCI Developmental Therapeutics Program. […] The stock solutions were prepared in dimethyl sulfoxide (DMSO, Sigma-Aldrich, St. Louis, MO, cat. D2650) at 800-fold the tested concentration and stored at -70 degrees C prior to their use. All drugs and investigational agents were tested over a range starting from a high concentration at or near the clinical Cmax and decreasing in half-log increments. If the clinical Cmax for an agent had not been determined, the highest concentration tested was 10 microM.
NCI60 Cell Culture. NCI60 cell lines were obtained from the NCI Developmental Therapeutics Program Tumor Repository. For each lot of cells, the Repository performed Applied Biosystems AmpFLSTR Identifiler testing with PCR amplification to confirm consistency with the published Identifier STR profile for each cell line. Cells were kept in continuous culture for no more than 20 passages. The optimal seeding densities for each of the cell lines at each time point assessed were determined prior to performing the concentration response studies. Briefly, the NCI60 human tumor lines were grown as monolayers in RPMI 1640 medium supplemented with 10% FBS and 2 mmol/L L-glutamine.
An additional 9 lines were from the NCI60 cell line panel including MDA-MB-231 breast carcinoma, MDA-MB-468 breast carcinoma, MCF7 breast carcinoma, Hs578T breast carcinoma, MALME-3M melanoma, SK-MEL-2 melanoma, SK-OV-3 ovarian carcinoma, DU-145 prostate carcinoma, PC-3 prostate carcinoma, all cell lines along with major genetic alterations are listed on Table 2. Pooled donor human umbilical vein endothelial cells (HUVEC, Lonza, cat. CC-2519) and human mesenchymal stem cells (hMSC, Lonza, cat. PT-2501) were purchased from Lonza (Walkersville, MD).
PDMR cell lines were grown in complete medium (DC medium): Dulbecco's modified Eagle's medium (DMEM)/F12 supplemented with 5% fetal bovine serum (FBS), 2 mM L-glutamine, 100 U/mL penicillin and 100 µg/ml streptomycin, 0.4 µg/ml hydrocortisone, 10 ng/ml epidermal growth factor (EGF) recombinant human protein, 24 µg/mL adenine, and 0.1 mg/mL primocin. During culture from frozen stock vials, PDMR cells were cultured in the same medium containing 10 µM Y-27632 (see Table 3). The PDCs were cultured in complete DMEM/F12 media without 10 microM Y-27632 dihydrochloride for at least two passages prior to the screen. The pooled donor HUVEC and hMSC were cultured in endothelial cell growth medium 2 (PromoCell, Heidelberg, Germany, cat. C-22011) and mesenchymal stem cell growth medium 2 (PromoCell, cat. C-28009), respectively. For all experiments, HUVEC and hMSC were used at passages </=5.
[…]

[1] = curve of first compound, second compound 0.1 µM
[2] = curve of first compound, second compound 0.316 µM
[3] = curve of first compound, second compound 1 µM
[4] = second compound 0.1 µM, first compound 0.0316 µM
[5] = second compound 0.1 µM, first compound 0.1 µM
[6] = second compound 0.316 µM, first compound 0.0316 µM
[7] = second compound 0.316 µM, first compound 0.1 µM
[8] = second compound 1 µM, first compound 0.0316 µM
[9] = second compound 1 µM, first compound 0.1 µM

Work on `CC(C)n1nc(-c2ccc3oc(N)nc3c2)c2c(N)ncnc21` + CCN1CCN(Cc2ccc(Nc3ncc(F)c(-c4cc(F)c5nc(C)n(C(C)C)c5c4)n3)nc2)CC1 yielded an IC50 (curve of first compound, second compound 0.01 µM) of 11.5 nM, an IC50 (curve of first compound, second compound 0.0316 µM) of 10.4 nM and an IC50 [1] of 11.2 nM. It also gave an IC50 [2] of 14.7 nM, an IC50 [3] of 11.6 nM and a viability, T/C (second compound 0.01 µM, first compound 0.000316 µM) of 90.8%. The viability, T/C (second compound 0.01 µM, first compound 0.001 µM) was 90%, the viability, T/C (second compound 0.01 µM, first compound 0.00316 µM) was 69.7% and the viability, T/C (second compound 0.01 µM, first compound 0.01 µM) was 57.6%. For the same molecule, the viability, T/C (second compound 0.01 µM, first compound 0.0316 µM) was 24.9%, the viability, T/C (second compound 0.01 µM, first compound 0.1 µM) was 10.6% and the viability, T/C (second compound 0.0316 µM, first compound 0.000316 µM) was 95.6%. The viability, T/C (second compound 0.0316 µM, first compound 0.001 µM) was 81.4%, the viability, T/C (second compound 0.0316 µM, first compound 0.00316 µM) was 67% and the viability, T/C (second compound 0.0316 µM, first compound 0.01 µM) was 56%. The viability, T/C (second compound 0.0316 µM, first compound 0.0316 µM) was 26.4%, the viability, T/C (second compound 0.0316 µM, first compound 0.1 µM) was 11.6% and the viability, T/C (second compound 0.1 µM, first compound 0.000316 µM) was 99%. For the same molecule, the viability, T/C (second compound 0.1 µM, first compound 0.001 µM) was 78.3%, the viability, T/C (second compound 0.1 µM, first compound 0.00316 µM) was 75.8% and the viability, T/C (second compound 0.1 µM, first compound 0.01 µM) was 54%. For the same molecule, the viability, T/C [4] was 26.9%, the viability, T/C [5] was 10.2% and the viability, T/C (second compound 0.316 µM, first compound 0.000316 µM) was 91.4%. The viability, T/C (second compound 0.316 µM, first compound 0.001 µM) was 88.3%, the viability, T/C (second compound 0.316 µM, first compound 0.00316 µM) was 86% and the viability, T/C (second compound 0.316 µM, first compound 0.01 µM) was 54.7%. It also gave a viability, T/C [6] of 35%, a viability, T/C [7] of 14.5% and a viability, T/C (second compound 1 µM, first compound 0.000316 µM) of 75.2%. The viability, T/C (second compound 1 µM, first compound 0.001 µM) was 81.3%, the viability, T/C (second compound 1 µM, first compound 0.00316 µM) was 64.2% and the viability, T/C (second compound 1 µM, first compound 0.01 µM) was 53.2%. The viability, T/C [8] was 34% and the viability, T/C [9] was 20%.

For `Cn1ncc(Cl)c1-c1cc(C(=O)NC(CN)Cc2cccc(F)c2)sc1Cl` (centres undefined), the viability, T/C (compound 0.0316 µM) was 82.3% and 88.3%, the viability, T/C (compound 0.1 µM) was 61.5% and 72.7% and the viability, T/C (compound 0.316 µM) was 55.5% and 61.2%. The viability, T/C (compound 1 µM) was 32.6% and 32.4%, the viability, T/C (compound 3.16 µM) was 15.9% and 11.8% and the viability, T/C (compound 10 µM) was 0.22% and 0.21%. The IC50 (curve of compound) was 330 nM and 460 nM.

For `C=CCn1c(=O)c2cnc(Nc3ccc(N4CCN(C)CC4)cc3)nc2n1-c1cccc(C(C)(C)O)n1`, the viability, T/C (compound 0.0316 µM) was 80.6% and 99.8%, the viability, T/C (compound 0.1 µM) was 94.4% and 96.1% and the viability, T/C (compound 0.316 µM) was 77.9% and 78.9%. For the same molecule, the viability, T/C (compound 1 µM) was 6.3% and 7.75%, the viability, T/C (compound 3.16 µM) was 3.1% and 3.7% and the viability, T/C (compound 10 µM) was 2.62% and 3.3%. The IC50 (curve of compound) was 495 nM and 505 nM.

Work on `Cn1ncc(Cl)c1-c1cc(C(=O)NC(CN)Cc2cccc(F)c2)sc1Cl` (centres undefined) + CC(C)NCC(C(=O)N1CCN(c2ncnc3c2C(C)CC3O)CC1)c1ccc(Cl)cc1 yielded an IC50 [1] of 366 nM, an IC50 [2] of 133 nM and an IC50 [3] of 52.2 nM. For the same molecule, the IC50 (curve of first compound, second compound 3.16 µM) was less than 31.6 nM, the IC50 (curve of first compound, second compound 10 µM) was less than 31.6 nM and the viability, T/C [4] was 71.1%. The viability, T/C [5] was 64%, the viability, T/C (second compound 0.1 µM, first compound 0.316 µM) was 54.8% and the viability, T/C (second compound 0.1 µM, first compound 1 µM) was 30.3%. The viability, T/C (second compound 0.1 µM, first compound 3.16 µM) was 16.1%, the viability, T/C (second compound 0.1 µM, first compound 10 µM) was 0.14% and the viability, T/C [6] was 57.7%. For the same molecule, the viability, T/C [7] was 51.5%, the viability, T/C (second compound 0.316 µM, first compound 0.316 µM) was 44% and the viability, T/C (second compound 0.316 µM, first compound 1 µM) was 31.8%. For the same molecule, the viability, T/C (second compound 0.316 µM, first compound 3.16 µM) was 16.6%, the viability, T/C (second compound 0.316 µM, first compound 10 µM) was 0.13% and the viability, T/C [8] was 50.5%. For the same molecule, the viability, T/C [9] was 50.9%, the viability, T/C (second compound 1 µM, first compound 0.316 µM) was 36.3% and the viability, T/C (second compound 1 µM, first compound 1 µM) was 28.4%. It also gave a viability, T/C (second compound 1 µM, first compound 3.16 µM) of 12.6%, a viability, T/C (second compound 1 µM, first compound 10 µM) of 0.12% and a viability, T/C (second compound 3.16 µM, first compound 0.0316 µM) of 31.8%. The viability, T/C (second compound 3.16 µM, first compound 0.1 µM) was 36.1%, the viability, T/C (second compound 3.16 µM, first compound 0.316 µM) was 31.5% and the viability, T/C (second compound 3.16 µM, first compound 1 µM) was 21.3%. The viability, T/C (second compound 3.16 µM, first compound 3.16 µM) was 10.8%, the viability, T/C (second compound 3.16 µM, first compound 10 µM) was 0.37% and the viability, T/C (second compound 10 µM, first compound 0.0316 µM) was 18.8%. For the same molecule, the viability, T/C (second compound 10 µM, first compound 0.1 µM) was 20.4%, the viability, T/C (second compound 10 µM, first compound 0.316 µM) was 17.4% and the viability, T/C (second compound 10 µM, first compound 1 µM) was 17.4%. For the same molecule, the viability, T/C (second compound 10 µM, first compound 3.16 µM) was 1.85% and the viability, T/C (second compound 10 µM, first compound 10 µM) was 0.18%.
